Data from publication PMC6669322, “Small Molecule Binding to Alzheimer Risk Factor CD33 Promotes Aβ Phagocytosis” (iScience, 2019).

Key:
[1] = system: human CD33-transfected BV2 cells; test: Aβ42 phagocytosis assay (Aβ42 pHrodo uptake); type: cell-based, murine; conditions: cells pre-treated with millimolar concentration of the ligand, in words
Excerpt: (§1) Having shown that P22 binds specifically to the sialic acid-binding site of this domain we now have a chemical tool to answer the question of whether the sialic acid-binding site is the appropriate target for small molecule ligands that might promote Aβ uptake. Siglecs preferentially recognize multivalent presentation of their ligands ([Rillahan et al., 2014], [Büll et al., 2016]), and for this reason we conjugated the biotinylated form of P22 to microparticles labeled with both FITC and streptavidin (P22 microparticles) (see Transparent Methods). More than 60% CD33-transfected BV2 cells were positive for P22 microparticles compared with only 30% cells that were only incubated with control particles (unconjugated to P22) (Figure 4A). Although some P22 microparticles also bind to non-transfected cells, the difference remains significant for the cells transfected with CD33. This led us to believe that the compound bound preferentially to CD33 (Figure 4A). […]
(§2) Figure 4 Effect of P22 on Phagocytosis The cells were treated with P22 conjugated to microparticles labeled with both streptavidin and fluorescein isothiocyanate (FITC), or with microparticles without P22 conjugated as control. […] (C) Quantification of phagocytic differentiated human THP-1 cells after incubation with P22 monomer, P22 conjugated microparticles, or microparticles without P22 conjugation. […]

[2] = system: CD33; parameters: method as in Blixt et al., 2003; conditions: order of magnitude in words; ref Blixt et al., 2003; cited from earlier work
[3] = system: differentiated THP-1 cells; test: THP-1 phagocytosis assay (pHrodo E. coli BioParticles), wild-type cells; type: cell-based, human; conditions: co-treatment, all treatment groups, in words
Excerpt: as §1, with “4A).” for “4A). Although some P22 microparticles also bind to non-transfected cells, the difference remains significant for the cells transfected with CD33. This led us to believe that the compound bound preferentially to CD33 (Figure 4A).”
as §2
THP-1 cells (control and CD33KO) were differentiated in growth media (RPMI 1640, 10% FCS) supplemented with 100 ng/mL PMA for 3 days. […] Differentiated cells were then lifted, counted and 75,000 cells/well were plated in a 96 well plate. […]

Row | Compound | effect on phagocytosis [1] | affinity for CD33 [2] | effect of co-treatment on phagocytosis [3]
1 | CC(=O)N[C@H]1[C@H]([C@H](O)[C@H](O)CO)O[C@@](O[C@H]2[C@@H](O)[C@@H](CO)O[C@@H](O[C@H]3[C@H](O)[C@@H](O)C(O)O[C@@H]3CO)[C@@H]2O)(C(=O)O)C[C@@H]1O (stereo partly drawn) [3′-sialyllactose] | no difference | millimolar | –
2 | C=C1[C@@H](C)[C@H]2[C@H](Cc3ccccc3)NC(=O)[C@]23[C@H](OC(C)=O)/C=C/[C@@](C)(O)C(=O)[C@@H](C)C/C=C/[C@H]3[C@@H]1O [cytochalasin D] | – | – | blocked phagocytosis
